The record followed here is PubChem BioAssay AID220 (DTP/NCI, 2004).

“And” between values parts separate entries of the source, which are not always exact repeats. Identical values can stand only once. Results filed as inconclusive are left out.

This assay concerns CD8F1 mice, subcutaneous mammary adenocarcinoma, T/C%. Put plainly: NCI In Vivo Anticancer Drug Screen. Data for tumor model Mammary Adenocarcinoma CD8F1 (subcutaneous) in CD8F1. The conditions noted are these: higher = larger tumour. Summed up:
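Mice carrying transplanted tumors received test compound, and survival or tumor size was recorded. Each value is the treated-group measurement divided by the corresponding measurement in vehicle-dosed controls.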

[1] abbreviates: endpoint: median tumor weight change, dose: 125.0 mg/kg/injection, schedule: Q01DX001 (ip), vehicle: saline with Tween-80.
Setting [2] is: endpoint: median tumor weight change, dose: 250.0 mg/kg/injection, schedule: Q01DX001 (ip), vehicle: saline with Tween-80.
Setting [3] is: endpoint: median tumor weight change, dose: 500.0 mg/kg/injection, schedule: Q01DX001 (ip), vehicle: saline with Tween-80.

On to `O=C[C@@H](CO)O[C@H](C=O)n1cnc2c(=O)[nH]cnc21`, for which the T/C (endpoint: mean tumor weight, dose: 12.5 mg/kg/injection, schedule: Q07DX004 (ip), vehicle: saline with Tween-80) was 119 % of control; the T/C (endpoint: mean tumor weight, dose: 25.0 mg/kg/injection, schedule: Q07DX004 (ip), vehicle: saline with Tween-80) is 98 % of control; the T/C (endpoint: mean tumor weight, dose: 50.0 mg/kg/injection, schedule: Q07DX004 (ip), vehicle: saline with Tween-80) was 76 % of control; the T/C (endpoint: mean tumor weight, dose: 100.0 mg/kg/injection, schedule: Q07DX004 (ip), vehicle: saline with Tween-80) is 78 % of control; the T/C (endpoint: mean tumor weight, dose: 200.0 mg/kg/injection, schedule: Q07DX004 (ip), vehicle: saline with Tween-80) was 100 % of control; the T/C (endpoint: mean tumor weight, dose: 400.0 mg/kg/injection, schedule: Q07DX004 (ip), vehicle: saline with Tween-80) was 67 % of control. Further, the T/C was 95 % of control (endpoint: median tumor weight (est.), dose: 12.5 mg/kg/injection, schedule: Q07DX005 (ip), vehicle: saline with Tween-80); 116 % of control (endpoint: median tumor weight (est.), dose: 25.0 mg/kg/injection, schedule: Q07DX005 (ip), vehicle: saline with Tween-80); 118 % of control (endpoint: median tumor weight (est.), dose: 50.0 mg/kg/injection, schedule: Q07DX005 (ip), vehicle: saline with Tween-80); 113 % of control (endpoint: median tumor weight (est.), dose: 100.0 mg/kg/injection, schedule: Q07DX005 (ip), vehicle: saline with Tween-80); 84 % of control (endpoint: median tumor weight (est.), dose: 200.0 mg/kg/injection, schedule: Q07DX005 (ip), vehicle: saline with Tween-80); 82 % of control (endpoint: median tumor weight (est.), dose: 400.0 mg/kg/injection, schedule: Q07DX005 (ip), vehicle: saline with Tween-80).

Regarding `O=c1n[n+]([O-])ccn1C1OC(CO)C(O)C1O` (centres undefined), the T/C was 175 % of control (endpoint: mean tumor weight, dose: 150.0 mg/kg/injection, schedule: Q07DX006 (ip), vehicle: saline); 50 % of control (endpoint: mean tumor weight, dose: 150.0 mg/kg/injection, schedule: Q07DX007 (ip), vehicle: saline); 90 % of control (endpoint: mean tumor weight, dose: 300.0 mg/kg/injection, schedule: Q07DX006 (ip), vehicle: saline); 60 % of control (endpoint: mean tumor weight, dose: 300.0 mg/kg/injection, schedule: Q07DX007 (ip), vehicle: saline); 33 % of control (endpoint: mean tumor weight, dose: 600.0 mg/kg/injection, schedule: Q07DX006 (ip), vehicle: saline); 65 % of control (endpoint: mean tumor weight, dose: 600.0 mg/kg/injection, schedule: Q07DX007 (ip), vehicle: saline). Also, the T/C is 82 % of control (endpoint: median tumor weight (est.), dose: 50.0 mg/kg/injection, schedule: Q07DX005 (ip), vehicle: saline); 93 % of control (endpoint: median tumor weight (est.), dose: 100.0 mg/kg/injection, schedule: Q07DX005 (ip), vehicle: saline); 71 % of control (endpoint: median tumor weight (est.), dose: 200.0 mg/kg/injection, schedule: Q07DX005 (ip), vehicle: saline); 101 % of control (endpoint: median tumor weight (est.), dose: 300.0 mg/kg/injection, schedule: Q07DX005 (ip), vehicle: saline); 106 % of control (endpoint: median tumor weight (est.), dose: 600.0 mg/kg/injection, schedule: Q07DX005 (ip), vehicle: saline).

In the case of `CN(C)C(=O)SC1=C(c2c(Cl)cccc2Cl)C(=O)c2ccccc21`, the T/C is, setting by setting: (endpoint: median tumor weight change, dose: 125.0 mg/kg/injection, schedule: Q01DX001 (ip), vehicle: Klucel (hydroxypropylcellulose) (HPC)) 101 % of control and 115 % of control; (endpoint: median tumor weight change, dose: 250.0 mg/kg/injection, schedule: Q01DX001 (ip), vehicle: Klucel (hydroxypropylcellulose) (HPC)) 98 % of control and 109 % of control; (endpoint: median tumor weight change, dose: 500.0 mg/kg/injection, schedule: Q01DX001 (ip), vehicle: Klucel (hydroxypropylcellulose) (HPC)) 113 % of control; (endpoint: median tumor weight change, dose: 1000.0 mg/kg/injection, schedule: Q01DX001 (ip), vehicle: Klucel (hydroxypropylcellulose) (HPC)) 74 % of control and 75 % of control; (endpoint: median tumor weight change, dose: 2000.0 mg/kg/injection, schedule: Q01DX001 (ip), vehicle: Klucel (hydroxypropylcellulose) (HPC)) 22 % of control and 38 % of control.

Regarding `Nc1n[n+](-c2ccc(Cl)cc2)no1`, the T/C by setting is: (endpoint: median tumor weight (est.), dose: 6.25 mg/kg/injection, schedule: Q07DX005 (ip), vehicle: water) 184 % of control; (endpoint: median tumor weight (est.), dose: 12.5 mg/kg/injection, schedule: Q07DX005 (ip), vehicle: water) 103 % of control; (endpoint: median tumor weight (est.), dose: 25.0 mg/kg/injection, schedule: Q07DX005 (ip), vehicle: water) 88 % of control.

In the case of `COC(C(=O)C(O)C(C)O)C1CC2C=C3C=C(OC4CC(OC5CC(O)C(OC)C(C)O5)C(OC(C)=O)C(C)O4)C(C)C(=O)C3=C(O)C2=C(O)C1OC1CC(OC2CC(OC3CC(C)(O)C(OC(=O)C(C)C)C(C)O3)C(O)C(C)O2)C(O)C(C)O1` (centres undefined), the T/C reads like this: (endpoint: median tumor weight (est.), dose: 25.0 micrograms/kg/injection, schedule: Q07DX005 (ip), vehicle: saline) 74 % of control; (endpoint: median tumor weight (est.), dose: 50.0 micrograms/kg/injection, schedule: Q07DX005 (ip), vehicle: saline) 78 % of control; (endpoint: median tumor weight (est.), dose: 100.0 micrograms/kg/injection, schedule: Q07DX005 (ip), vehicle: saline) 65 % of control; (endpoint: median tumor weight (est.), dose: 200.0 micrograms/kg/injection, schedule: Q07DX005 (ip), vehicle: saline) 48 % of control; (endpoint: median tumor weight (est.), dose: 400.0 micrograms/kg/injection, schedule: Q07DX005 (ip), vehicle: saline) 73 % of control.

Consider `CC1(C)OC1CS(=O)c1ccccc1` (centres undefined), for which the T/C by setting is: under setting [1], 160 % of control; under setting [2], 83 % of control and 92 % of control; under setting [3], 72 % of control and 94 % of control.

With `C=C(C)[C@H]1Cc2c(ccc3c2O[C@@H]2COc4cc(OC)c(OC)cc4[C@@H]2C3=O)O1`, the T/C is, setting by setting: (endpoint: median tumor weight (est.), dose: 4.0 mg/kg/injection, schedule: Q07DX005 (ip), vehicle: saline) 95 % of control; (endpoint: median tumor weight (est.), dose: 8.0 mg/kg/injection, schedule: Q07DX005 (ip), vehicle: saline) 85 % of control; (endpoint: median tumor weight (est.), dose: 16.0 mg/kg/injection, schedule: Q07DX005 (ip), vehicle: saline) 102 % of control; (endpoint: median tumor weight (est.), dose: 32.0 mg/kg/injection, schedule: Q07DX005 (ip), vehicle: saline) 95 % of control.

As for `O=C(NO)c1ccc(O)c(O)c1`, the T/C (endpoint: median tumor weight change, dose: 300.0 mg/kg/injection, schedule: Q01DX001 (ip), vehicle: water) is 89 % of control and the T/C (endpoint: median tumor weight change, dose: 600.0 mg/kg/injection, schedule: Q01DX001 (ip), vehicle: water) was 48 % of control.

On to `CC(=O)c1cccc(NC2C(N)C(NC(=O)N(C)C)(C(C)O)C(C)(O)C2(O)COC(=O)c2c(C)cccc2O)c1` (centres undefined), for which the T/C reads like this: (endpoint: median tumor weight (est.), dose: 1.0 mg/kg/injection, schedule: Q07DX005 (ip), vehicle: suspension in saline) 162 % of control; (endpoint: median tumor weight (est.), dose: 1.8 mg/kg/injection, schedule: Q07DX005 (ip), vehicle: saline with Tween-80) 67 % of control and 77 % of control; (endpoint: median tumor weight (est.), dose: 2.0 mg/kg/injection, schedule: Q07DX005 (ip), vehicle: suspension in saline) 78 % of control; (endpoint: median tumor weight (est.), dose: 3.6 mg/kg/injection, schedule: Q07DX005 (ip), vehicle: saline with Tween-80) 72 % of control and 93 % of control; (endpoint: median tumor weight (est.), dose: 4.0 mg/kg/injection, schedule: Q07DX005 (ip), vehicle: suspension in saline) 78 % of control; (endpoint: median tumor weight (est.), dose: 7.2 mg/kg/injection, schedule: Q07DX005 (ip), vehicle: saline with Tween-80) 55 % of control and 78 % of control. The T/C was 119 % of control (endpoint: median tumor weight (est.), dose: 8.0 mg/kg/injection, schedule: Q07DX005 (ip), vehicle: suspension in saline); 23 % of control and 44 % of control (endpoint: median tumor weight (est.), dose: 14.4 mg/kg/injection, schedule: Q07DX005 (ip), vehicle: saline with Tween-80).

As for `COC1CC(C)C(OC)C2=CC(=O)C=C(NC(=O)/C(C)=C/C=C\C(C)C(OC(N)=O)/C(C)=C\C(C)C1OC)C2=O` (centres undefined), the T/C is, setting by setting: (endpoint: median tumor weight change, dose: 6.25 mg/kg/injection, schedule: Q01DX001 (ip), vehicle: saline + alcohol) 152 % of control; (endpoint: median tumor weight change, dose: 12.5 mg/kg/injection, schedule: Q01DX001 (ip), vehicle: saline + alcohol) 91 % of control; (endpoint: median tumor weight change, dose: 25.0 mg/kg/injection, schedule: Q01DX001 (ip), vehicle: saline + alcohol) 72 % of control.

As for `CC(=O)CC(C)=O.CC(=O)CC(C)=O.O=N[O-].O=N[O-].[Co]`, the T/C runs as follows: (endpoint: median tumor weight change, dose: 62.5 mg/kg/injection, schedule: Q01DX001 (ip), vehicle: saline with Tween-80) 96 % of control; under setting [1], 38 % of control.

On to `C1CN(P2(N3CC3)=NP(N3CC3)(N3CC3)=NP(N3CC3)(N3CC3)=N2)CCO1` (centres undefined), for which the T/C reads like this: (endpoint: median tumor weight (est.), dose: 6.25 mg/kg/injection, schedule: Q07DX005 (ip), vehicle: saline) 39 % of control; (endpoint: median tumor weight (est.), dose: 12.5 mg/kg/injection, schedule: Q07DX005 (ip), vehicle: saline) 44 % of control; (endpoint: median tumor weight (est.), dose: 25.0 mg/kg/injection, schedule: Q07DX005 (ip), vehicle: saline) 6 % of control.

Consider `CC(Oc1ccccc1-c1ccccc1)C(=O)N(C)C` (centres undefined), for which the T/C runs as follows: under setting [1], 70 % of control; under setting [2], 89 % of control; under setting [3], 95 % of control.
